{"source": "patent US20240238256A1", "about": "“NITAZOXANIDE IN THE TREATMENT OF SEPSIS” (GENFIT, priority 2021, published 2024)", "key": {"[1]": {"system": "caspase 3/7 activity in HepG2 cells", "assay": "Staurosporine-induced apoptosis (caspase 3/7 activity) in HepG2 cells", "format": "cell-based, human", "conditions": "for inhibition at 6 µM: Homo sapiens, HepG2, 6 μM", "description": "The human hepatoblastoma-derived HepG2 cell line was cultured as described in Example 2. Caspase 3/7 activity was assessed in 1.5×10^4 cells plated in a 384-well plate (#781080, Greiner, France). After cell adherence (8 hours), cells were serum starved for 16 h with or without TZ, the active metabolite of NTZ. […] Caspase 3/7 activity was measured as previously described."}, "[2]": {"system": "polymicrobial sepsis induced by cecal ligation and puncture (CLP)", "assay": "CLP-induced polymicrobial sepsis, survival (Example 1)", "format": "in vivo, C57BL6J male mice", "description": "Polymicrobial sepsis induced by cecal ligation and puncture (CLP) is characterized by dysregulated systemic inflammatory responses followed by immunosuppression. The CLP model in mice mimics the progression and features of human sepsis and is thus also useful to determine whether a drug would be efficient in the treatment of prevention of transition from sepsis to septic shock.\nThis study aims to investigate the efficacy of NTZ in CLP model in C57BL6J (BL6) male mice. The efficacy of the test compound was evaluated based on the survival rate of the animals within the study period.\nC57BL6J male mice (supplier Janvier—France) at 9 weeks of age and weighing 23-25 g on arrival were anesthetized with 250 µL of xylazine/ketamine solution (6.75 mg/kg for ketamine (Imalgene, Boehringer, Germany) et 2.5 mg/kg for xylazine (Rompund 2%, Bayer, Germany)) by intraperitoneal route. A 1-1.5 cm abdominal midline incision was made, and the cecum was located and tightly ligated at half the distance between distal pole and the base of the cecum with 4-0 silk suture (mild grade). The caecum was punctured through-and-through once with a 21-gauge needle from mesenteric toward antimesenteric direction after medium ligation. A small amount of stool was extruded to ensure that the wounds were patent. Then the cecum was replaced in its original position within the abdomen, which was closed with sutures and wound clips. Mice were followed for body weight evolution and mortality rate until Day 7.\nNTZ (Interchim, France) was administered by oral gavage at 50 mg/kg BID. NTZ treatment was initiated 3 days before CLP. The day of the surgery, NTZ was given once (50 mg/kg) 1 h before CLP and then a second time when animals have recovered from anesthesia (50 mg/kg). BID treatments was then pursued daily until the end of the study (n=15). Mice receiving NTZ vehicle (carboxymethylcellulose (#C4888, Sigma-Aldrich, Germany) BID served as controls (n=10). […]"}, "[3]": {"system": "polymicrobial sepsis induced by CLP surgery", "assay": "CLP-induced sepsis, survival and welfare scoring, NTZ with or without 3-day pretreatment (Example 4)", "format": "in vivo, C57BL6J mice", "conditions": "for mortality at 55 hours post-surgery: control group 60%; for mice survived sepsis at the end of the study: untreated 12.5%", "description": "Polymicrobial sepsis was induced by CLP surgery in C57BL6J mice, as described in Example 1. NTZ was prepared as previously described and administrated per os at 100 mg/kg/day BID either starting 3 days before CLP (3 day pretreatment) or starting on the same day as the CLP surgery (without pretreatment) as shown in FIG. 5A. C57BI/6J male mice (8 week-old, Janvier, France) were divided into 3 groups of 24 mice each, after 7 days acclimation: • Group 1 received vehicle for 3 days before surgery and for 6 days after CLP surgery. • Group 2 received nitazoxanide (NTZ) for 3 days before surgery and then for 6 days after CLP surgery (pretreatment). • Group 3 received vehicle for 3 days before surgery and then NTZ for 6 days after CLP surgery (without pretreatment).\nTreatments with NTZ were made twice daily at 9 am and […]. The day of the CLP surgery (Day 0), mice received NTZ or vehicle one hour before being anaesthetized (groups 2 and 3).\nWelfare scoring of severity of murine sepsis model has been published to harmonize human end points and also to normalize grades observed between animals throughout experiments (Shrum B, Anantha R V, Xu S X et al. A robust scoring system to evaluate sepsis severity in an animal model. BMC Res Notes 2014; 7:233). Animals were individually observed, and changes were recorded and scored according to their intensity. Observations included changes in appearance, activity, response to stimuli, eyes opening, breathing quality and evolution of body weight. For each of these clinical signs, the severity was measured on a scale of 0 to 3. The evolution of the severity was followed and the mean score at each time point was calculated and plotted on graphs. Arbitrary, when mice die or are euthanized, they are scored at 4."}, "[4]": {"system": "polymicrobial sepsis induced by CLP surgery", "assay": "CLP-induced sepsis, survival and welfare scoring, NTZ before/after or only after surgery (Example 5)", "format": "in vivo, C57BL6J mice", "conditions": "for mortality at 55 hours post-surgery: control group 55%; for mice survived sepsis at the end of the study (day 7): untreated 20%", "description": "Polymicrobial sepsis was induced by CLP surgery in C57BL6J mice, and NTZ was prepared and administrated per os, as described previously. […]\nDuring the 6 days following the surgery, treatments with NTZ were made twice daily at 9 am and 5 pm at the dose of 100 mg/kg/day (p.o. BID) per mouse. Control mice received vehicle the same way to avoid any deviations between control and treated mice."}, "[5]": {"system": "caspase 3/7 activity in HepG2 cells", "assay": "TNFα-induced apoptosis (caspase 3/7 activity) in HepG2 cells", "format": "cell-based, human", "conditions": "for increased caspase 3/7 activity: 24 hours", "description": "In order to evaluate the effect of NTZ on human hepatocytes that undergo a cellular stress induced by cytokines, the human hepatoblastoma-derived HepG2 cell line (#85011430, ECACC, UK) was cultured with or without TZ, the active metabolite of NTZ, in high-glucose DMEM medium (#41965, Gibco, France) supplemented with 10% of fetal bovine serum (FBS, #10270, Gibco), 1% penicillin/streptomycin (#15140, Gibco), 1% sodium pyruvate (#11360, Gibco) and 1% MEM non-essential amino acids (#11140, Gibco) in a 5% CO2 incubator at 37° ° C. To evaluate caspase 3/7 activity, which is a surrogate marker of apoptosis, 5×10^4 cells were plated in a 96-well plate (Thermo Fischer, Germany). After cell adherence (8 hours), cells were pre-treated with a dose range of 0.3 to 3 μM of TZ (Interchim, France), in FBS-deprived cell culture medium for 16 h. Thereafter, tumor necrosis factor α (TNFα) (#C6378, Promocell, Germany) was added to the wells at the dose of 10 or 30 ng/ml for additional 24 hours. Staurosporine (10 μM) (#19-123MG, Sigma-Aldrich, Germany) was used as a reference to induce apoptosis. Cells were incubated with staurosporine 3 hours before Caspase activity measurement. Caspase 3/7 activity was measured using Caspase Glow™ 3/7 assay (#G8093, Promega, USA). Luminescence was measured using a Spark microplate reader (#30086376, Tecan, USA). The amount of luminescence (RLU) directly correlates with caspase 3/7 activity."}, "[6]": {"conditions": "NTZ per os 100 mg/kg/day BID from day of CLP, without pretreatment"}, "[7]": {"conditions": "NTZ per os 100 mg/kg/day BID with 3-day pretreatment"}, "[8]": {"conditions": "concomitant addition with staurosporine, without pretreatment"}, "[9]": {"conditions": "NTZ BID T-1 h/T+3.5 h, 100 mg/kg/day p.o."}, "[10]": {"conditions": "NTZ QD T+3.5 h (100 mg/kg) then 50 mg/kg BID p.o."}}, "data": [{"compound": "CN[C@@H]1C[C@H]2O[C@@](C)([C@@H]1OC)n1c3ccccc3c3c4c(c5c6ccccc6n2c5c31)C(=O)NC4", "note": "[staurosporine]", "values": [{"measurement": "increase of caspase 3/7 activity", "setting": "[1]; staurosporine 30 μM, 4 hours", "result": 11, "unit": "fold"}]}, {"compound": "CC(=O)Oc1ccccc1C(=O)Nc1ncc([N+](=O)[O-])s1", "note": "[NTZ, [2-[(5-nitro-1,3-thiazol-2-yl)carbamoyl]phenyl]ethanoate]", "values": [{"measurement": "mice survived 7 days after intervention", "setting": "[2]; NTZ oral gavage 50 mg/kg BID, started 3 days before CLP", "result": 33, "unit": "%"}, {"measurement": "mice still alive 3 days after surgery", "setting": "[2]; NTZ oral gavage 50 mg/kg BID, started 3 days before CLP, vehicle group 100% mortality at 3 days", "result": 47, "unit": "%"}, {"measurement": "mortality at 55 hours post-surgery", "setting": "[3]; [6]", "result": 17, "unit": "%"}, {"measurement": "mice survived sepsis at the end of the study", "setting": "[3]; [6]", "result": 58.3, "unit": "%"}, {"measurement": "mortality at 55 hours post-surgery", "setting": "[3]; [7]", "result": 25, "unit": "%"}, {"measurement": "mice survived sepsis at the end of the study", "setting": "[3]; [7]", "result": 45.8, "unit": "%"}, {"measurement": "inhibition at 6 µM", "setting": "[1]; [8]", "result": 78, "unit": "%"}, {"measurement": "mortality at 55 hours post-surgery", "setting": "[4]; [9]", "result": 5, "unit": "%"}, {"measurement": "mice survived sepsis at the end of the study (day 7)", "setting": "[4]; [9]", "result": 80, "unit": "%"}, {"measurement": "mortality at 55 hours post-surgery", "setting": "[4]; [10]", "result": 15, "unit": "%"}, {"measurement": "mice survived sepsis at the end of the study (day 7)", "setting": "[4]; [10]", "result": 70, "unit": "%"}]}, {"compound": "C[C@@H](O)[C@H]1C(=O)N2C(C(=O)O)=C(S[C@@H]3CN[C@H](C(=O)Nc4cccc(C(=O)O)c4)C3)[C@H](C)[C@H]12", "note": "[Ertapenem]", "values": [{"measurement": "mice saved at the end of the study", "setting": "[2]; Ertapenem 10 mg/kg intraperitoneal, 1 h before surgery and daily after CLP, Day 7", "result": 10, "unit": "%"}]}, {"compound": "O=C(Nc1ncc([N+](=O)[O-])s1)c1ccccc1O", "note": "[TZ, tizoxanide]", "values": [{"measurement": "inhibition at 3 µM", "setting": "[5]; Homo sapiens, 3 μM TZ, 16 h pretreatment, 10 ng/ml TNFα", "result": 40, "unit": "%"}, {"measurement": "reduction of caspase activity", "setting": "[5]; TZ pretreatment, higher TNFα dose (30 ng/ml)", "result": "this effect was confirmed with the higher TNFα dose"}, {"measurement": "inhibition at 6 µM", "setting": "[1]; 16 h pretreatment, staurosporine 30 μM", "result": 82, "unit": "%"}, {"measurement": "inhibition at 6 µM", "setting": "[1]; [8]", "result": 64, "unit": "%"}]}, {"compound": "TNFα", "values": [{"measurement": "increased caspase 3/7 activity", "setting": "[5]; 10 ng/ml TNFα", "result": 1.5, "unit": "fold"}, {"measurement": "increased caspase 3/7 activity", "setting": "[5]; 30 ng/ml TNFα", "result": 1.7, "unit": "fold"}]}]}
